Reference: patent publication US20230339970A1, “CASEIN KINASE 1 DELTA MODULATORS” (priority 2020, published 2023)

Columns and labels:
human CSNK1D = target: T1, human CSNK1D (Homo sapiens, UniProt P48730); test: Whole Cell nBRET CSNK1D Binding Assay; conditions: living CHO cells stably expressing human CSNK1D tagged with nanoluciferase; NanoBret tracer 130 nM; 2 hours at 37 C
T1 construct: expressed in transfected cells

[1] = target: T2, human recombinant GST cleaved CSNK1D (Homo sapiens, UniProt P48730); test: Purified Enzyme Assay (ADP-Glo CSNK1D Kinase Assay); type: biochemical; conditions: 2 nM CSNK1D; peptide substrate 150 μM; ATP 20 μM; 45 minutes at room temperature
T2 construct: GST (cleaved yes); purchased University of Dundee clone DU 19064
T2 sequence (P48730 whole entry): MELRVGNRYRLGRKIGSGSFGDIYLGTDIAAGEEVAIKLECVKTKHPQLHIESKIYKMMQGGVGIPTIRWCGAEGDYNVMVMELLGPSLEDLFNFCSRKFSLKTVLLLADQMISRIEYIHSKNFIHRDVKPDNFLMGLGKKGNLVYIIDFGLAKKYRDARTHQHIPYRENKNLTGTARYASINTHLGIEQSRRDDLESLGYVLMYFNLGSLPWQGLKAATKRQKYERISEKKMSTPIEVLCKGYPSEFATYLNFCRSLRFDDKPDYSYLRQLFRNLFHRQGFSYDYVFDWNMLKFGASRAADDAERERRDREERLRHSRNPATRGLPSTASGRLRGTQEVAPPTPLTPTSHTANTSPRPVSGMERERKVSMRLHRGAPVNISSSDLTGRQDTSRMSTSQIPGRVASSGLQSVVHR
Summary of the method: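 Percent activity derived from ADP-Glo quantification of ADP produced. Reactions: compound dose-response with human recombinant GST-cleaved CSNK1D, ATP and substrate peptide PLSRTL-pS-VASLPGL, incubated 45 min at room temperature.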

T1 sequence (P48730 whole entry): as above

Row | IC50 (human CSNK1D) [nM] | IC50 [1] [nM] | SMILES
1 | 72 | 9 | Cc1cc(-c2c(-c3ccc(F)cc3)nn3c2COCC32CC2)c2cn[nH]c2n1 [Example 107, 2′-(4-Fluorophenyl)-3′-(6-methyl-1H-pyrazolo[3,4-b]pyridin-4-yl)-4′H,6′H-spiro[cyclopropane-1,7-pyrazolo[5,1-c][1,4]oxazine]]
2 | 79 | 11 | Cc1cc(-c2c(-c3ccc(F)cc3)nn3c2CC(F)(F)CC3)c2cn[nH]c2n1 [Example 47, 4-(5,5-Difluoro-2-(4-fluorophenyl)-4,5,6,7-tetrahydropyrazolo[1,5-a]pyridin-3-yl)-6-methyl-1H-pyrazolo[3,4-b]pyridine]
3 | 6 | 2 | Cc1n[nH]c2nccc(-c3c(-c4ccc(F)cc4)nn4c3OCC3(C4)CC3(F)F)c12 (single isomer, unassigned) [Example 473, (*R)-2,2-Difluoro-2′-(4-fluorophenyl)-3′-(3-methyl-1H-pyrazolo[3,4-b]pyridin-4-yl)-5′H,7′H-spiro[cyclopropane-1,6′-pyrazolo[5,1-b][1,3]oxazine]]
4 | 42 | 2 | CC[C@@]1(C)Cn2nc(-c3ccc(F)cn3)c(-c3ccnc4[nH]ncc34)c2CO1 (single isomer, unassigned) [Example 170, *S-6-Ethyl-2-(5-fluoropyridin-2-(l)-6-methyl-3-(1H-pyrazolo[3,4-b]pyridin-4-yl)-6,7-dihydro-4H-pyrazolo[5,1-c][1,4]oxazine]
5 | 141 | 6 | CC1(C)Cn2nc(-c3ccc(F)cn3)c(-c3cc(C(F)F)nc4[nH]ncc34)c2CO1 [Example 390, 3-[6-(Difluoromethyl)-1H-pyrazolo[3,4-b]pyridin-4-yl]-2-(5-fluoro-2-pyridyl)-6,6-dimethyl-4,7-dihydropyrazolo[5,1-c][1,4]oxazine]
6 | 68 | 8 | COCC1(F)CCc2c(-c3cc(C(F)F)nc4[nH]ncc34)c(-c3ccc(F)cn3)nn2C1 (single isomer, unassigned) [Example 306, (*S)-6-(Difluoromethyl)-4-[6-fluoro-2-(5-fluoro-2-pyridyl)-6-(methoxymethyl)-5,7-dihydro-4H-pyrazolo[1,5-a]pyridin-3-yl]-1H-pyrazolo[3,4-b]pyridine]
7 | 2 | 1 | Fc1ccc(-c2nn3c(c2-c2ccnc4[nH]ncc24)CC[C@@H]2[C@H]3C2(F)F)cc1 (stereo in doubt) [Example 356, (5a*R,6a*S-6,6-Difluoro-2-(4-fluorophenyl)-3-(1H-pyrazolo[3,4-b]pyridin-4-yl)-5,5a,6,6a-tetrahydro-4H-cyclopropa[e]pyrazolo[1,5-a]pyridine]
8 | 55 | 4 | Cc1cc(-c2c(-c3ccc(F)cn3)nn3c2C2CC2C3)c2cn[nH]c2n1 (racemic) [Example 24, 2-(5-Fluoropyridin-2-yl)-3-(6-methyl-1H-pyrazolo[3,4-b]pyridin-4-yl)-3b,4,4a,5-tetrahydrocyclopropa[3,4]pyrrolo[1,2-b]pyrazole]
9 | > 10000 | 524 | CCn1ncc2cc(-c3c(-c4ccc(F)cc4)nn4c3COCC4C)cnc21 (stereo not shown) [Example 370, 3-(1-Ethyl-1H-pyrazolo[3,4-b]pyridin-5-yl)-2-(4-fluorophenyl)-7-methyl-6,7-dihydro-4H-pyrazolo[5,1-c][1,4]oxazine]
10 | 6 | 1 | Cc1cc(-c2c(-c3ccc(F)cc3)nn3c2[C@@H]2C[C@@H]2C3)c2cn[nH]c2n1 (relative stereo) [Example 276, (3b*R,4a*S)-2-(4-Fluorophenyl)-3-(6-methyl-1H-pyrazolo[3,4-b]pyridin-4-yl)-3b,4,4a,5-tetrahydrocyclopropa[3,4]pyrrolo[1,2-b]pyrazole]

The next lines start with the compound.

Row | SMILES | IC50 (human CSNK1D) [nM] | IC50 [1] [nM]
11 | [2H]C([2H])([2H])C1(C([2H])([2H])[2H])Cn2nc(-c3ccc(F)cn3)c(-c3cc(C(F)F)nc4[nH]ncc34)c2CO1 [Example 402, 3-(6-(Difluoromethyl)-1H-pyrazolo[3,4-b]pyridin-4-yl)-2-(5-fluoropyridin-2-yl)-6,6-bis(methyl-d3)-6,7-dihydro-4H-pyrazolo[5,1-c][1,4]oxazine] | 75 | 5
12 | CC1(C)COc2c(-c3ccnc4cc[nH]c34)c(-c3ccc(F)cn3)nn2C1 [Example 450, 2-(5-Fluoro-2-pyridyl)-6,6-dimethyl-3-(1H-pyrrolo[3,2-b]pyridin-7-yl)-5,7-dihydropyrazolo[5,1-b][1,3]oxazine] | 1050 | 75
13 | C[C@@]1(CF)CCc2c(-c3ccnc4[nH]nc(Cl)c34)c(-c3ccc(F)cn3)nn2C1 (single isomer, unassigned) [Example 291, (*R)-3-Chloro-4-(6-(fluoromethyl)-2-(5-fluoropyridin-2-yl)-6-methyl-4,5,6,7-tetrahydropyrazolo[1,5-a]pyridin-3-yl)-1H-pyrazolo[3,4-b]pyridine] | 6 | 5
14 | Cn1ncc2c(-c3c(-c4ccc(F)cn4)nn4c3COC(C)(C)C4)ccnc21 [Example 153, 2-(5-Fluoro-2-pyridyl)-6,6-dimethyl-3-(1-methylpyrazolo[3,4-b]pyridin-4-yl)-4,7-dihydropyrazolo[5,1-c][1,4]oxazine] | 3710 | 176
15 | Cc1cc(-c2c(-c3ncc(F)cc3F)nn3c2COC(C)(C)C3)c2cn[nH]c2n1 [Example 167, 2-(3,5-Difluoropyridin-2-yl)-6,6-dimethyl-3-(6-methyl-1H-pyrazolo[3,4-b]pyridin-4-yl)-6,7-dihydro-4H-pyrazolo[5,1-c][1,4]oxazine] | 91 | 3
16 | COCC[C@@]1(C)CCc2c(-c3ccnc4[nH]ncc34)c(-c3ccc(F)cn3)nn2C1 (single isomer, unassigned) [Example 319, (*R)-4-[2-(5-Fluoro-2-pyridyl)-6-(2-methoxyethyl)-6-methyl-5,7-dihydro-4H-pyrazolo[1,5-a]pyridin-3-yl]-1H-pyrazolo[3,4-b]pyridine] | 81 | 5
17 | CCn1ncc2cc(-c3c(-c4ccc(F)cn4)nn4c3OCCC4)cnc21 [Example 441, 3-(1-Ethyl-1H-pyrazolo[3,4-b]pyridin-5-yl)-2-(5-fluoropyridin-2-yl)-6,7-dihydro-5H-pyrazolo[5,1-b][1,3]oxazine] | 1870 | 44
18 | COc1ccc2nccc(-c3c(-c4ccc(F)cn4)nn4c3COC(C)(C)C4)c2n1 [Example 168, 2-(5-Fluoropyridin-2-yl)-3-(6-methoxy-1,5-naphthyridin-4-yl)-6,6-dimethyl-6,7-dihydro-4H-pyrazolo[5,1-c][1,4]oxazine] | 836 | 19
19 | CC1(C)Cn2nc(-c3ccc(F)cn3)c(-c3ccnc4cn[nH]c34)c2CO1 [Example 139, 2-(5-Fluoropyridin-2-yl)-6,6-dimethyl-3-(1H-pyrazolo[4,3-b]pyridin-7-yl)-6,7-dihydro-4H-pyrazolo[5,1-c][1,4]oxazine] | > 10000 | 450
20 | CC1(C)Cn2nc(-c3ccc(F)cn3)c(-c3c(F)cnc4[nH]ncc34)c2CO1 [Example 389, 3-(5-Fluoro-1H-pyrazolo[3,4-b]pyridin-4-yl)-2-(5-fluoropyridin-2-yl)-6,6-dimethyl-6,7-dihydro-4H-pyrazolo[5,1-c][1,4]oxazine] | 94 | 5
